Experimental data from patent EP4737453A1, “NOVEL SELENOPHENE DERIVATIVES” (Aigen Sciences Inc., priority 2023, dated 2025).

Legend:
[1] = biological target: T1, SOS2 and KRAS G12C interaction (Homo sapiens, UniProt Q07890); type: biochemical
T1 sequence (Q07890 1-1332): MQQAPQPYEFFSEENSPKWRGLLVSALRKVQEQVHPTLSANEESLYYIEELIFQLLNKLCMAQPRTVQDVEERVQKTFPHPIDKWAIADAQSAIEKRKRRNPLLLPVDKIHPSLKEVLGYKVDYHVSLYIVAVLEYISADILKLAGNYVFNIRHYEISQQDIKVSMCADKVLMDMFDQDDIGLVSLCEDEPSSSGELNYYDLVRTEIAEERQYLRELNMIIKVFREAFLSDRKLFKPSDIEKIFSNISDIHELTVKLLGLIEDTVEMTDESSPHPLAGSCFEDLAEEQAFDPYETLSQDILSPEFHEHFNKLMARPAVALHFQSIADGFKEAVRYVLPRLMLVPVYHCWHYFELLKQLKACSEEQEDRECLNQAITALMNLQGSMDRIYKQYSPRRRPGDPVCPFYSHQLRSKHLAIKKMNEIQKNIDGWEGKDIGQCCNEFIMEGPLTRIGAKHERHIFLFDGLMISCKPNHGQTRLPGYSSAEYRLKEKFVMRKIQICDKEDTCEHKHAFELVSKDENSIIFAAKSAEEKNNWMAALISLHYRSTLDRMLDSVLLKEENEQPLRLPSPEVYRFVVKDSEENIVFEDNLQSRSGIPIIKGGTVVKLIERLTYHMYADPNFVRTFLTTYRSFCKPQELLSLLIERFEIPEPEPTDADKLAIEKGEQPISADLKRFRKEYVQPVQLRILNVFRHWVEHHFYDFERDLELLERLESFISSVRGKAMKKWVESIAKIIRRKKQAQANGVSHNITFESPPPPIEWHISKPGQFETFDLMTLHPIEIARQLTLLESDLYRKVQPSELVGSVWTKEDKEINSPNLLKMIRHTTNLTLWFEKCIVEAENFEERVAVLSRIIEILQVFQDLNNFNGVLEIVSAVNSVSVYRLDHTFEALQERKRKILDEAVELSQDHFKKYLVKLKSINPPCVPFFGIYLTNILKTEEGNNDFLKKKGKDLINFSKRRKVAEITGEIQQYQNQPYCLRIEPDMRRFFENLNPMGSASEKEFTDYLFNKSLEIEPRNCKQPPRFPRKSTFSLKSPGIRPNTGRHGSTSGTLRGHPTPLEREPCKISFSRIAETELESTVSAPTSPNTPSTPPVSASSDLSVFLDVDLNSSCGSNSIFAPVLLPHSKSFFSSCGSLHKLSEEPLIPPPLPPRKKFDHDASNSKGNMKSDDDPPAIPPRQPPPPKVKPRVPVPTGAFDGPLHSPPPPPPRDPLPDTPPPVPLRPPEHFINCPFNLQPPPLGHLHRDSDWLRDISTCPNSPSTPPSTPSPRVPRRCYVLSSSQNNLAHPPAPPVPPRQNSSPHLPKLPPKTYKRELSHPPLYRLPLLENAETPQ

NCI-H358 = experiment: Cell Growth Inhibition Assay (3D CellTiter-Glo); type: cell-based; settings: Homo sapiens, NCI-H358, 288 h, read-out: Cell growth IC50
Procedure: Cell Growth Inhibition Assay
In this experimental example, the cell growth inhibitory effect of compounds according to the present invention and positive control compounds in tumor cell lines was examined.
The cell culture medium containing the compound was replaced by 100 µL every 3 days. Luminescence analysis was performed using the 3D CellTiter-Glo Luminescent Cell Viability Assay Kit (Promega, USA) (Promega catalog number G9681). […] The percent cell growth inhibition rate was calculated from the measured relative luminescence unit (RLU) as follows. Inhibition rate = 1−((RLU compound−RLU blank)/(RLU control−RLU blank)) X 100 [formula]

CNCc1ccccc1-c1c[se]c([C@@H](C)Nc2nc(C)nc3cc(OC)c(OC)cc23)c1 [Example 1, (R)-6,7-dimethoxyl-2-methyl-N-(1-(4-(2-((methylamino)methyl)phenyl)selenophen-2-yl)ethyl)quinazolin-4-amine]
IC50 [1]: 24.6 µM
IC50 (NCI-H358): 0.0207 µM
